In patent publication US8536136B2, “Inhibitors of serine proteases, particularly HCV NS3-NS4A protease” (Vertex Pharmaceuticals Incorporated, priority 2004, dated 2013) one finds Ki data, which are given here for eight compounds.

The structures appear in SMILES notation.

Chain of HCV NS3-NS4A protease (tNS3 with KK4A) (P27958 1027-1208): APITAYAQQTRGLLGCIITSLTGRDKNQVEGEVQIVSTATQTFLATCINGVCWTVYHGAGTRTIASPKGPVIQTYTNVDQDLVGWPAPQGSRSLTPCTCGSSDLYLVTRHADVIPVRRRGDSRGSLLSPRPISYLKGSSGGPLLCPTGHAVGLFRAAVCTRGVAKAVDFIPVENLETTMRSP
Chain of HCV NS3-NS4A protease (tNS3 with KK4A) (P27958 1658-1711): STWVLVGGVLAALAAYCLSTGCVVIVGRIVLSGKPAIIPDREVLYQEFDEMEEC

The assay has as its target HCV NS3-NS4A protease (tNS3 with KK4A) (Hepatitis C virus genotype 1a, UniProt P27958). The experiment in a line: HCV Ki Assay (HPLC microbore separation of 5AB substrate and products). It is filed as biochemical. To be noted: 25 nM tNS3, 25 μM KK4A, 25 μM 5AB substrate, 20 min at 30 C. The protocol: HPLC Microbore Method for Separation of 5AB Substrate and Products
NH2-Glu-Asp-Val-Val-(alpha)Abu-Cys-Ser-Met-Ser-Tyr-COOH
A stock solution of 20 mM 5AB (or concentration of your choice) was made in DMSO w/0.2M DTT. This was stored in aliquots at −20 C.
Buffer: 50 mM HEPES, pH 7.8; 20% glycerol; 100 mM NaCl
Total assay volume was 100 μL
The buffer, KK4A, DTT, and tNS3 were combined; distributed 78 μL each into wells of 96 well plate. This was incubated at 30 C for ˜5-10 min.
2.5 μL of appropriate concentration of test compound was dissolved in DMSO (DMSO only for control) and added to each well. This was incubated at room temperature for 15 min.
Initiated reaction by addition of 20 μL of 250 μM 5AB substrate (25 μM concentration is equivalent or slightly lower than the Km for 5AB).
Incubated for 20 min at 30 C.
Terminated reaction by addition of 25 μL of 10% TFA
Transferred 120 μL aliquots to HPLC vials
Separated SMSY product from substrate and KK4A by the following method:
Microbore Separation Method:
Stop time: 17 min Post-run time: 10 min.
`CCC[C@H](NC(=O)[C@@H]1C[C@@H]2CCCC[C@@H]2N1C(=O)[C@@H](NC(=O)[C@@H](NC(=O)c1cnccn1)C1CCCCC1)C(C)(C)C)C(=O)C(=O)NOC(C)(C)C` [Compound 2, 1-(2-{2-Cyclohexyl-2-[(pyrazine-2-carbonyl)-amino]-acetylamino}-3,3-dimethyl-butyryl)-octahydro-indole-2-carboxylic acid (1-tert-butoxyaminooxalyl-butyl)-amide] showed a Ki of less than 1500 nM. For `CCC[C@H](NC(=O)[C@@H]1C[C@@H]2CCCC[C@@H]2N1C(=O)[C@@H](NC(=O)[C@@H](NC(=O)c1cnccn1)C1CCCCC1)C(C)(C)C)C(=O)C(=O)NN1CCOCC1` [Compound 7] the value was more than 3000 nM; for `CCC[C@H](NC(=O)[C@@H]1C[C@@H]2CCCC[C@@H]2N1C(=O)[C@@H](NC(=O)[C@@H](NC(=O)c1cnccn1)C1CCCCC1)C(C)(C)C)C(=O)C(=O)NN(Cc1ccccc1)Cc1ccccc1` [Compound 8], more than 3000 nM. Compound `C=CCONC(=O)C(=O)[C@H](CCC)NC(=O)[C@@H]1C[C@@H]2CCCC[C@@H]2N1C(=O)[C@@H](NC(=O)[C@@H](NC(=O)c1cnccn1)C1CCCCC1)C(C)(C)C` [Compound 4, 1-(2-{2-Cyclohexyl-2-[(pyrazine-2-carbonyl)-amino]-acetylamino}-3,3-dimethyl-butyryl)-octahydro-indole-2-carboxylic acid (1-allyloxyaminooxalyl-butyl)-amide] yielded a Ki of more than 3000 nM. The same measure for `CCC[C@H](NC(=O)[C@@H]1C[C@@H]2CCCC[C@@H]2N1C(=O)[C@@H](NC(=O)[C@@H](NC(=O)c1cnccn1)C1CCCCC1)C(C)(C)C)C(=O)C(=O)NOCC(C)C` [Compound 1, 1-(2-{2-Cyclohexyl-2-[(pyrazine-2-carbonyl)-amino]-acetylamino}-3,3-dimethyl-butyryl)-octahydro-indole-2-carboxylic acid (1-isobutoxyaminooxalyl-butyl)-amide]: less than 1500 nM. The same measure for `CCC[C@H](NC(=O)[C@@H]1C[C@@H]2CCCC[C@@H]2N1C(=O)[C@@H](NC(=O)[C@@H](NC(=O)c1cnccn1)C1CCCCC1)C(C)(C)C)C(=O)C(=O)NN(C)c1ccccc1` [Compound 6, 1-(2-{2-Cyclohexyl-2-[(pyrazine-2-carbonyl)-amino]-acetylamino}-3,3-dimethyl-butyryl)-octahydro-indole-2-carboxylic acid [1-(N′-methyl-N′-phenyl-hydrazinooxalyl)-butyl]-amide]: less than 1500 nM; for `CCC[C@H](NC(=O)[C@@H]1C[C@@H]2CCCC[C@@H]2N1C(=O)[C@@H](NC(=O)[C@@H](NC(=O)c1cnccn1)C1CCCCC1)C(C)(C)C)C(=O)C(=O)NOCc1ccccc1` [Compound 3, 1-(2-{2-Cyclohexyl-2-[(pyrazine-2-carbonyl)-amino]-acetylamino}-3,3-dimethyl-butyryl)-octahydro-indole-2-carboxylic acid (1-benzyloxyaminooxalyl-butyl)-amide]: 1500 to 3000 nM; for `CCC[C@H](NC(=O)[C@@H]1C[C@@H]2CCCC[C@@H]2N1C(=O)[C@@H](NC(=O)[C@@H](NC(=O)c1cnccn1)C1CCCCC1)C(C)(C)C)C(=O)C(=O)NOc1ccccc1` [Compound 5, 1-(2-{2-Cyclohexyl-2-[(pyrazine-2-carbonyl)-amino]-acetylamino}-3,3-dimethyl-butyryl)-octahydro-indole-2-carboxylic acid (1-phenoxyaminooxalyl-butyl)-amide]: 1500 to 3000 nM.

As usually defined, the Ki is a dissociation constant, usually derived from enzyme kinetics or from competition with a known ligand. Read a high Ki as a looser hold on the target.
